Earlier results, collected in patent US10874615B2, “Formulation having controlled, delayed release of active ingredient” (Merck Patent GmbH, priority 2015, dated 2020).

Details: after oral administration; first-pass metabolism

bioavailability: 25-30%
SMILES: CC(C)NCC(O)COc1cccc2ccccc12 (stereo not shown) [propranolol]
